Assay results as given in paper PMC8348110, “A Novel Peptide Derived from the Transmembrane Domain of Romo1 Is a Promising Candidate for Sepsis Treatment and Multidrug-Resistant Bacteria” (International Journal of Molecular Sciences, 2021).
Converted amounts (≈) assume the structure as drawn. Residues, ends and D or L forms follow the SMILES beside them.

Experiments:
[1] = test system: Carbapenem-resistant P. aeruginosa (CRPA), clinical isolate; type: cell-based, Pseudomonas aeruginosa; details: 1 h
Procedure, shortened: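 Mid-log clinical isolates diluted to 5 × 10^5 CFU/mL in 10 mM sodium phosphate (pH 7.4) with 1% TS broth, exposed 1 h to peptides two-fold diluted from 64 μg/mL, then plated on TS agar overnight at 37 °C. MBC is the lowest concentration with no colonies.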

[2] = test system: Carbapenem-resistant A. baumannii, clinical isolate; type: cell-based, Acinetobacter baumannii; details: 1 h
Source text: Acinetobacter baumannii (ATCC 19606), B. subtilis (ATCC 6633), E. aerogenes (ATCC 13048), E. coli (ATCC 25922), E. faecalis (ATCC 19433), E. faecium (ATCC 19434), K. pneumoniae (ATCC 13883), P. aeruginosa (ATCC 27853), S. aureus (ATCC 29213), S. sindenensis (ATCC 23963), and MRSA (ATCC 33591) were purchased from the American Type Culture Collection (ATCC; Gaithersburg, MD, USA). Streptococcus pneumoniae (NCCP 14585), vancomycin-resistant E. faecium (NCCP 11522), and vancomycin-resistant S. aureus (NCCP 15872) were purchased from the National Culture Collection for Pathogens (NCCP; Cheongju, Korea). The isolation and use of carbapenem-resistant bacterial strains from a patient were approved (2015AN0129) by the Institutional Review Board (IRB) of Korea University Hospital. […]
The minimum bactericidal concentration (MBC) was determined as previously described with minor modifications. […] The value of MBC was determined at the lowest concentrations at which no colonies were identified.
(§1) We used the CFU counting method to measure antibacterial activity, with all bacteria cultured to the mid-log phase in an appropriate broth medium. Bacterial CFUs were counted after overnight culture at 37 °C on TS or LB agar plates. The MBC value and antibacterial activity in blood components were determined as previously described. […]

[3] = test system: HeLa cells; type: cell-based, human
Method: (§2) Mammalian cell viability was measured using a 3-(4,5-dimethylthiazol-2-yl)-2,5-diphenyltetrazolium bromide (MTT) assay in HeLa and HEK 293 cells. Cells were cultured on 96-well plates and incubated separately with AMPR-11, AMPR-21, AMPR-22, magainin 2, or daptomycin. After incubation for an hour, the cells were incubated with MTT solution (2 mg/mL of MTT in PBS) for an hour, and the media were removed, and dimethyl sulfoxide was added to allow the MTT formazans to solubilize. The optical density was measured using a SpectraMax Plus 384 microplate reader (Molecular Devices, San Jose, CA, USA) at 550 nm.

[4] = test system: human embryotic kidney (HEK) 293 cells; type: cell-based
Method: as §2

[5] = test system: P. aeruginosa or S. aureus; type: in vitro ADME
Method: Figure 4 The antibacterial activity of AMPR-22 in various physiological conditions. (A,B) Effects of AMPR-22 activity in mouse plasma and human serum. AMPR-22 was incubated with blood components for the indicated times (0, 15, 30, 60, 90, 120, 150, and 180 min) and then with P. aeruginosa or S. aureus for an hour. (C,D) Effects of AMPR-22 activity in low-density lipoprotein (LDL), high-density lipoprotein (HDL), and bovine serum albumin. AMPR-22 was incubated with blood components for the indicated times (0, 30, 60, 120, and 180 min) and then with P. aeruginosa or S. aureus for an hour. (E) Effects of AMPR-22 activity in whole blood. AMPR-22 was incubated with mouse and human whole blood for the indicated times (0, 30, 60, 90, 120, and 180 min) and then with P. aeruginosa for an hour. (F,G) The antibacterial activity of AMPR-22 in vivo. AMPR-22 was intravenously administered into P. aeruginosa-infected mice, and blood was collected from the tail veins of the mice at the indicated times (0, 15, 30, 60, and 90 min). (F) The relative CFU in blood samples was calculated using the following formula: CFU at indicated time ÷ CFU at 0 min × 100 (%). (G) The relative CFU of blood samples obtained from F was re-graphed using the following formula: CFU of AMPR-22-treated mouse group ÷ CFU of control (PBS) group × 100 (%). (H) The functional half-life measurement of AMPR-22. AMPR-22 was intravenously administered into mice, and blood was collected at the indicated times (0, 5, 30, 60, 90, 120, 150, and 180 min). The blood was collected by cardiac puncture, and the plasma was isolated by centrifugation. Then, the plasma was incubated with P. aeruginosa for an hour. The antibacterial activity was measured using a colony-forming unit assay. […]
as §1

SMILES: CC[C@H](C)[C@H](NC(=O)CNC(=O)CNC(=O)[C@@H](NC(=O)[C@H](C)NC(=O)[C@H](CCSC)NC(=O)[C@H](Cc1ccccc1)NC(=O)[C@@H](NC(=O)CNC(=O)[C@H](Cc1ccccc1)NC(=O)[C@H](CCCCN)NC(=O)CNC(=O)CNC(=O)[C@H](CCCCN)NC(=O)[C@H](CCCCN)NC(=O)[C@H](CCSC)NC(=O)[C@H](CCSC)NC(=O)[C@H](CCCCN)NC(=O)[C@@H](N)CCCCN)[C@@H](C)O)[C@@H](C)CC)C(=O)N[C@@H](CCCNC(=N)N)C(=O)O [AMPR-22] (H-KKMMKKGGKFGTFMAIGGIR-OH)
- MBC Value, CRPA [1]: 4 µg/mL (≈ 1.83 µM)
- MBC Value, Carbapenem-resistant P. aeruginosa [1]: 4 µg/mL (≈ 1.83 µM)
- MBC Value, Carbapenem-resistant A. baumannii [2]: 1 µg/mL (≈ 0.457 µM)
- Cytotoxicity, HeLa cells [3]: slight cytotoxicity
- Cytotoxicity, HEK 293 cells [4]: slight cytotoxicity
- Antibacterial activity in presence of human LDL, HDL or bovine serum albumin [5]: not affected
- Functional half-life in vitro [5]: around 90 min
- Half-life of antibacterial activity in mouse plasma and human serum [5]: longer than that of AMPR-11
